Results reported in US8710045B2, “Agents for preventing and treating disorders involving modulation of the ryanodine receptors” (The Trustees of Columbia University in the City of New York, priority 2004, dated 2014).
Where “and” joins values, the source holds several entries; their conditions need not be identical. Identical values can stand only once. Each block holds one compound with its values, some of them ahead of it.

Assays:
hERG current = hERG current (Homo sapiens, UniProt Q12809); test: hERG current, PatchXpress 7000A automatic parallel patch clamp in hERG-transfected HEK 293 cells (Example 6); details: for Individual Data (% Inhibition): single cell; for hERG current inhibition at the highest concentration tested: highest concentration tested (10 μM)
Chain of hERG current (Q12809 whole entry): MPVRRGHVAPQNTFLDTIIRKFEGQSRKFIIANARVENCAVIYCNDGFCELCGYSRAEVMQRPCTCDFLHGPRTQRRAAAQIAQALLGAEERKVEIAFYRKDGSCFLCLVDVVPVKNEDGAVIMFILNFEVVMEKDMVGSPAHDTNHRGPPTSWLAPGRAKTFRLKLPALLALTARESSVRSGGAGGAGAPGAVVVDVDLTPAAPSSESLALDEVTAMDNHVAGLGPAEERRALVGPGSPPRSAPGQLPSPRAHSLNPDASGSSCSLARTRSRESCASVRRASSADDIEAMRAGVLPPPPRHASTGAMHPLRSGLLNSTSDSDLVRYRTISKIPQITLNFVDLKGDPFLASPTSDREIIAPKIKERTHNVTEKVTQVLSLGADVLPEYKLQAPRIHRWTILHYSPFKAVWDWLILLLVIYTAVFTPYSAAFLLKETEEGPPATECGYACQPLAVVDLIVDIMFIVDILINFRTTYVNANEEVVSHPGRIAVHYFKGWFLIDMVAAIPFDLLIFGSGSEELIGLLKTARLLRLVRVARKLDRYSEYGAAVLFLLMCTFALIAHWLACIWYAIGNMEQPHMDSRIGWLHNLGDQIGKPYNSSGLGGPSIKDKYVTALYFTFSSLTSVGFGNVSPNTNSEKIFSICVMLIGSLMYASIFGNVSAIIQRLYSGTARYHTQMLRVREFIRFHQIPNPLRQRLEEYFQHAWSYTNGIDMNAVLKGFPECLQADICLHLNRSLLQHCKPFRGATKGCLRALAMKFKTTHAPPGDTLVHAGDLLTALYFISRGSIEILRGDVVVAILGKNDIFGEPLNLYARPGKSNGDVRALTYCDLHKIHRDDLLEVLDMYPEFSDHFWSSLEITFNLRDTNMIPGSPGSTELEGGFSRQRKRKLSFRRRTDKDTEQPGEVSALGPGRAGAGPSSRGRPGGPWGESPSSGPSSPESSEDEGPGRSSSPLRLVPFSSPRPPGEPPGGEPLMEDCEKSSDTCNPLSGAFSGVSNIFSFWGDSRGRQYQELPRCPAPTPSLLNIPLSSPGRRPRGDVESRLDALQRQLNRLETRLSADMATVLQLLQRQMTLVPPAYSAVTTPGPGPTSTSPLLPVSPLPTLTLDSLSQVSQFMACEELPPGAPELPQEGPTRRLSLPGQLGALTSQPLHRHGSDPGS
Procedure: (§1) HEK293 cells were transfected with a plasmid containing the hERG cDNA and a neomycin resistance gene. Stable transfectants were selected by culturing the cells in the presence of G418. The selection pressure was maintained by continued culture in the presence of G418. […] Cells for use in electrophysiology were cultured in 35 mm dishes.
(§2) Onset and steady state block of hERG current was measured using a pulse pattern with fixed amplitudes (conditioning prepulse: +20 mV for 2 seconds; test pulse: −50 mV for 2 seconds) repeated at 10 second intervals, from a holding potential of −80 mV. Peak tail current was measured during the 2 second step to −50 mV. A steady state was maintained for at least 30 seconds before applying the test compound or the positive control. Peak tail current was monitored until a new steady state was achieved. Test compound concentrations were applied cumulatively in ascending order without washout between applications.
(§3) Data acquisition and analysis was performed using the suite of pCLAMP (Vre. 8.2) programs (Axon Instruments, Union City, Calif.). Steady state was defined by the limiting constant rate of change with time (linear time dependence). The steady state before and after application of the test or control compounds was used to calculate the percentage of current inhibited at each concentration. […] Nonlinear squares fits were solved with the Solver add-in for Excel 2000 (Microsoft, Redmond, Wash.).
(§4) Multiple compounds of the invention were tested for their effects on hERG currents. The compounds tested were: ARM036-Na, ARM047, ARM048, ARM050, ARM057, ARM064, ARM074, ARM075, ARM076, ARM077, ARM101, ARM102, ARM103, ARM104, ARM106, ARM107 and ARM26. […] Electrophysiological recordings were made using the PatchXpress 7000 A (Molecular Devices) automatic parallel patch clamp system. […] The duration of exposure to each test concentration was 5 minutes.

PKA-phosphorylated RyR2 = molecular target: T1, PKA-phosphorylated RyR2 (Homo sapiens, UniProt Q92736); test: FKBP12.6 rebinding assay: FKBP12.6 binding to PKA-phosphorylated RyR2 in cardiac SR; details: compound 0.5-1000 nM; Michaelis-Menten curve fitting
T1 construct: from tissue
Procedure: Samples are centrifuged at 95,000 g for 10 min and the pellets are washed three times in 0.2 ml imidazole buffer. The final pellets are pooled and resuspended in imidazole buffer (final concentration≈10 μg/μl). […] Samples then are centrifuged at 100,000 g for 10 minutes and pellets washed 3 times with imidizol buffer. […] Immunoblots are developed using an anti-FKBP antibody (1:3,000 dilution). […] The intracellular solution contains (in mM): CsCl, 60; CaCl2, 1; EGTA, 11; MgCl2, 1; K2ATP, 5; HEPES, 10; aspartic acid, 50; pH 7.4 (CsOH). Under these conditions, it is expected that the measured current was carried by Ba^2+ primarily through L-type calcium channels which is referred to as ICa,L. Drugs are applied by a local solution changer and reach the cell membrane within 1 s.
The FKBP12.6 rebinding assay described above is used to determine the amount of FKBP12.6 binding to PKA-phosphorylated RyR2 at various concentrations (0.5-1000 nM) of the compounds shown. EC50 values are calculated using Michaelis-Menten curve fitting.
The EC50 values are calculated using Michaelis-Menten curve fitting.

hERG = hERG (Homo sapiens, UniProt Q12809); test: hERG current, PatchXpress 7000A automatic parallel patch clamp in hERG-transfected HEK 293 cells (Example 6); details: human, HEK 293 cells stably transfected with hERG cDNA
Chain of hERG (Q12809 whole entry): as above
Procedure: as §1, §2, §3, §4

[1] = Individual Data (% Inhibition), single cell

Structure (SMILES): COc1ccc2c(c1)CN(C(=O)N1CCN(Cc3ccc4c(c3)OCO4)CC1)CCS2 [S47]
IC50 (hERG current): 2500 nM
Mean % hERG Inhibition (hERG current; 0.01 μM): 2.7%
Individual Data (% Inhibition) (hERG current; 0.01 μM, listed as ARM047, 0.01 µM): 1.7% and 3.7%
Mean % hERG Inhibition (hERG current; 0.1 μM): 9.7%
Individual Data (% Inhibition) (hERG current; 0.1 μM, listed as ARM047, 0.1 µM): 6.5% and 12.9%
Mean % hERG Inhibition (hERG current; 1 μM): 29.6%
Individual Data (% Inhibition) (hERG current; 1 μM, listed as ARM047, 1 µM): 30.8% and 20.4% and 37.5%
Mean % hERG Inhibition (hERG current; 10 μM): 78.0%
Individual Data (% Inhibition) (hERG current; 10 μM, listed as ARM047, 10 µM): 82.1% and 75.9%
EC50 (PKA-phosphorylated RyR2): 20 nM

Structure (SMILES): COc1ccc2c(c1)CN(C(=O)N1CCCCC1)CCS2 [S50]
Mean % hERG Inhibition (hERG current; 0.01 μM): 1.8%
Individual Data (% Inhibition) (hERG current; 0.01 μM, listed as ARM050, 0.01 µM): 1.1% and 2.4%
Mean % hERG Inhibition (hERG current; 0.1 μM): 3.7%
Individual Data (% Inhibition) (hERG current; 0.1 μM, listed as ARM050, 0.1 µM): 2.7% and 4.7%
Mean % hERG Inhibition (hERG current; 1 μM): 6.1%
Individual Data (% Inhibition) (hERG current; 1 μM, listed as ARM050, 1 µM): 7.1% and 5.1%
Mean % hERG Inhibition (hERG current; 10 μM): 24.2%
Individual Data (% Inhibition) (hERG current; 10 μM, listed as ARM050, 10 µM): 27.0% and 21.3%
hERG current inhibition at the highest concentration tested (hERG current): less than 50%
EC50 (PKA-phosphorylated RyR2): 40 nM

Structure (SMILES): COc1ccc2c(c1)CN(C(=O)NO)CCS2 [S51]
EC50 (PKA-phosphorylated RyR2): 175 nM

Structure (SMILES): COc1ccc2c(c1)CN(C(=O)NCc1ccc3c(c1)CCO3)CCS2 [S52]
EC50 (PKA-phosphorylated RyR2): 143 nM

Structure (SMILES): COc1ccc2c(c1)CN(C(=O)N1CCN(c3ccccc3)CC1)CCS2 [S53]
EC50 (PKA-phosphorylated RyR2): 200 nM

Structure (SMILES): COc1ccc2c(c1)CN(C(=O)CCN1CCCCC1c1nnc(Cc3ccccc3)o1)CCS2 (stereo not shown) [S55]
EC50 (PKA-phosphorylated RyR2): 111 nM

Structure (SMILES): COC(=O)C(=O)N1CCSc2ccc(OC)cc2C1 [S57]
Mean % hERG Inhibition (hERG current; 0.01 μM): 0.2%
Individual Data (% Inhibition) (hERG current; 0.01 μM, listed as ARM057, 0.01 µM): 0.3% and 0.0%
Mean % hERG Inhibition (hERG current; 0.1 μM): 7.3%
Individual Data (% Inhibition) (hERG current; 0.1 μM, listed as ARM057, 0.1 µM): 4.1% and 10.4%
Mean % hERG Inhibition (hERG current; 1 μM): 2.7%
Individual Data (% Inhibition) (hERG current; 1 μM, listed as ARM057, 1 µM): 5.3% and 0.1%
Mean % hERG Inhibition (hERG current; 10 μM): 13.6%
Individual Data (% Inhibition) (hERG current; 10 μM, listed as ARM057, 10 µM): 18.3% and 8.8%
hERG current inhibition at the highest concentration tested (hERG current): less than 50%
EC50 (PKA-phosphorylated RyR2): 73 nM

Structure (SMILES): CCN(CC)C(=O)C(=O)N1CCSc2ccc(OC)cc2C1 [S59]
EC50 (PKA-phosphorylated RyR2): 102 nM

Structure (SMILES): COc1ccc2c(c1)CN(C(=O)CCN1CCC(Cc3ccc(N)cc3N)CC1)CCS2 [S61]
EC50 (PKA-phosphorylated RyR2): 95 nM

Structure (SMILES): COc1ccc2c(c1)CN(C(=O)NCCc1ccc(O)c(O)c1)CCS2 [S66]
EC50 (PKA-phosphorylated RyR2): 110 nM

Structure (SMILES): c1ccc2c(c1)CNCCS2 [S68]
EC50 (PKA-phosphorylated RyR2): ~100 nM

Structure (SMILES): O=C(NO)N1CCSc2ccccc2C1 [S74]
Mean % hERG Inhibition (hERG current; 0.01 μM): 1.9%
Individual Data (% Inhibition) (hERG current; 0.01 μM, listed as ARM074, 0.01 µM): 0.8% and 3.0%
Mean % hERG Inhibition (hERG current; 0.1 μM): 4.8%
Individual Data (% Inhibition) (hERG current; 0.1 μM, listed as ARM074, 0.1 µM): 5.9% and 3.7%
Mean % hERG Inhibition (hERG current; 1 μM): 1.3%
Individual Data (% Inhibition) (hERG current; 1 μM, listed as ARM074, 1 µM): 0.2% and 2.4% and 5.6%
Mean % hERG Inhibition (hERG current; 10 μM): 9.5%
Individual Data (% Inhibition) (hERG current; 10 μM, listed as ARM074, 10 µM): 9.3% and 9.6% and 14.0%
EC50 (PKA-phosphorylated RyR2): 220 nM

Structure (SMILES): O=C(N1CCNCC1)N1CCSc2ccccc2C1 [S103]
inhibition at 5 min, 0.1 µM (hERG; [1]): 4.2%
inhibition at 5 min, 1 µM (hERG; [1]): 5%
inhibition at 5 min, 10 µM (hERG; Individual Data (% Inhibition), 10 μM, single cell): 28.4%
inhibition at 5 min, 0.01 µM (hERG; Mean % hERG Inhibition, 0.01 μM): 6.8%
inhibition at 5 min, 0.1 µM (hERG; Mean % hERG Inhibition): 3.3%
inhibition at 5 min, 1 µM (hERG; Mean % hERG Inhibition): 7.3%
inhibition at 5 min, 10 µM (hERG; Mean % hERG Inhibition, 10 μM): 29.2%
inhibition at 5 min, 10 µM (hERG; hERG current inhibition at the highest concentration tested, highest concentration tested (10 μM)): < 50%
Individual Data (% Inhibition) (hERG current; 0.01 μM, listed as ARM103, 0.01 µM): 12.1% and 1.5%
Individual Data (% Inhibition) (hERG current; 0.1 μM, listed as ARM103, 0.1 µM): 2.4%
Individual Data (% Inhibition) (hERG current; 1 μM, listed as ARM103, 1 µM): 9.6%
Individual Data (% Inhibition) (hERG current; 10 μM, listed as ARM103, 10 µM): 29.9%

Results, then the compound that gave them:

EC50 (PKA-phosphorylated RyR2): 81 nM
Structure (SMILES): COc1ccc2c(c1)CN(C(=O)NCc1ccccc1)CCS2 [S49]

EC50 (PKA-phosphorylated RyR2): 77 nM
Structure (SMILES): COc1ccc2c(c1)CN(S(=O)(=O)Nc1cccnc1)CCS2 [S54]

EC50 (PKA-phosphorylated RyR2): 95 nM
Structure (SMILES): COc1ccc2c(c1)CN(C(=O)CCN1CCCC[C@H]1c1nnc(Cc3ccccc3)o1)CCS2 [S56]

EC50 (PKA-phosphorylated RyR2): 55 nM
Structure (SMILES): COc1ccc2c(c1)CN(C(=O)CCN1CCCCC1)CCS2 [S58]

EC50 (PKA-phosphorylated RyR2): 68 nM
Structure (SMILES): COc1ccc2c(c1)CN(C(=O)CCN1CCC(Cc3ccc(N)cc3)CC1)CCS2 [S60]

EC50 (PKA-phosphorylated RyR2): 45 nM
Structure (SMILES): COc1ccc2c(c1)CN(C(=O)CCN1CCC(Cc3ccc(N=[N+]=[N-])cc3)CC1)CCS2 [S62]

EC50 (PKA-phosphorylated RyR2): 52 nM
Structure (SMILES): COc1ccc2c(c1)CN(C(=O)CCN1CCC(Cc3ccc(N=[N+]=[N-])cc3N=[N+]=[N-])CC1)CCS2 [S63]

EC50 (PKA-phosphorylated RyR2): 89 nM
Structure (SMILES): COc1ccc2c(c1)CN(C(=O)NCCc1cnc[nH]1)CCS2 [S67]
